Common to all, as to format: biochemical
Test [1] concerns the target T1, human 20S proteasome subunit β2 (Homo sapiens, UniProt Q99436).
T1 construct: gene PSMB7; human constitutive 20S proteasome (h20S), whole complex; catalytic N-terminal Thr1; with other subunits of the 20S proteasome (α1–α7, β1–β7)
The experiment in a line: cryo-EM structure at […] Å; IC50 with Z-VLR-amc.

The target of test [2] is T2, human 20S proteasome subunit β5 (Homo sapiens, UniProt P28074).
T2 construct: gene PSMB5; human constitutive 20S proteasome (h20S), whole complex; catalytic N-terminal Thr1; with other subunits of the 20S proteasome (α1–α7, β1–β7)
T2 sequence (Q06323 whole entry): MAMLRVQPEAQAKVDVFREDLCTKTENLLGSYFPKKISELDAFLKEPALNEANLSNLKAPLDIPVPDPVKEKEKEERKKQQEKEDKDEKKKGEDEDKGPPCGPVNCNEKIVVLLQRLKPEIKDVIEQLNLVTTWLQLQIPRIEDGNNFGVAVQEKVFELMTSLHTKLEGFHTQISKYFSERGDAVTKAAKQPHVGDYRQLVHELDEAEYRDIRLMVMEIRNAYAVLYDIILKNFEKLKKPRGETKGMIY
T2 sequence (P28074 60-263): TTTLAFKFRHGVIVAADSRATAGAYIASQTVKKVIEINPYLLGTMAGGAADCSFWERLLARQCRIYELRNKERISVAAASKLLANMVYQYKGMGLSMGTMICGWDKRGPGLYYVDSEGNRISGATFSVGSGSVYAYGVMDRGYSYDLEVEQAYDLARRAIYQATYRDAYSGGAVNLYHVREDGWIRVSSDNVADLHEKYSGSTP
The experiment in a line: cryo-EM structure at […] Å; IC50 with Suc-LLVY-amc.

In test [3] the test system is T3, Trichomonas vaginalis 20S proteasome (Tv20S) subunit β5.
T3 construct: Tv20S, whole complex; with other subunits of the Tv20S proteasome
The experiment in a line: IC50 for the individual proteolytic subunit (Figure S5).

In test [4] the test system is T4, Trichomonas vaginalis 20S proteasome (Tv20S) subunit β1.
T4 construct: Tv20S, whole complex; with other subunits of the Tv20S proteasome
Described as above.

The target of test [5] is T5, human 20S proteasome subunit β1 (Homo sapiens, UniProt P28072).
T5 construct: gene PSMB6; human constitutive 20S proteasome (h20S), whole complex; catalytic N-terminal Thr1; with other subunits of the 20S proteasome (α1–α7, β1–β7)
T5 sequence (Q06323 whole entry): as the sequence (Q06323 whole entry) above
T5 sequence (P28072 35-239): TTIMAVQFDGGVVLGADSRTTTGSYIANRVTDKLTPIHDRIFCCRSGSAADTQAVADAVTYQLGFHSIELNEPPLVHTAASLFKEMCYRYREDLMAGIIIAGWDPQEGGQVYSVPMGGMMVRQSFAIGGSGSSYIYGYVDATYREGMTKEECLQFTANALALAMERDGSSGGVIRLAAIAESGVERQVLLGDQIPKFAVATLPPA
The experiment in a line: cryo-EM structure at […] Å; IC50 with Z-LLE-amc.

The results in this text go back to publication PMC11946101, “Structural Insights into Salinosporamide a Mediated Inhibition of the Human 20S Proteasome” (Molecules, 2025).

The structures appear in SMILES notation.

The term IC50 denotes the midpoint of a concentration-inhibition curve. A lower IC50 goes with greater potency in that assay.

T1 sequence (Q06323 whole entry): as the sequence (Q06323 whole entry) above
T1 sequence (Q99436 44-277): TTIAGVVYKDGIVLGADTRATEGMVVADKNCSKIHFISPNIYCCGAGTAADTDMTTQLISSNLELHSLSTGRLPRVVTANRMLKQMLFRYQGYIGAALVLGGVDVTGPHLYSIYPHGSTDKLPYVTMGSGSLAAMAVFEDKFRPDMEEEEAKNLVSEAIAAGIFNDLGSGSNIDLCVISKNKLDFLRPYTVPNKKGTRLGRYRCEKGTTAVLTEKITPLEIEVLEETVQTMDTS

Regarding `C[C@@]12OC(=O)[C@]1([C@@H](O)[C@@H]1C=CCCC1)NC(=O)[C@@H]2CCCl` [MZB, Marizomib], the IC50 was found to be 0.326 µM in test [1]; 0.0185 µM in test [2]; 0.0039 ± 0.0002 µM in test [3]; 0.244 ± 0.0722 µM in test [4]; 0.597 µM in test [5].
